Experimental findings from patent US9295190B2, “Seed treatment composition” (DSM IP ASSETS B.V., priority 2011, dated 2016) are described below.

Each structure is given as a SMILES string.

For assay [1], the system named is Watermelon (Citrullus lanatus) seeds. The experiment in a line: Germination of coated watermelon seeds in cocopeat. In kind it is in vivo. An excerpt:
Watermelon (Citrullus lanatus) seeds were untreated or coated with a composition comprising 1.5 gram polyvinylpyrrolidone and 9 gram natamycin product (i.e. Delvocid®, a product comprising 50% (w/w) natamycin) per kg of seed. This composition was applied as described in Example 10.
(§1) Subsequently, the seeds were germinated in trays of sterile, buffered (i.e. with calcium nitrate to pH of 6.7) cocopeat, which is a stable growth medium commonly used and accepted for e.g. simulation of seed germination in the horticultural industry. The 50 seeds planted per treatment were subjected to an ambient temperature of minimally 1.4° C. during night time and maximally 26.9° C. during day time (average temperature 13.6° C.) for 19 days and continuously irrigated to field capacity. The average relative humidity during the trial was 72%. During the trial, the trays with cocopeat were irrigated 3 to 5 times per day. The trays were perforated at the bottom leading to direct removal of excess water. This way, the cocopeat could be kept at field capacity. After 15, 17 and 19 days, the germination percentage was determined according to ISTA standards (see Handbook International Rules for Seed Testing, Edition 2011, Chapter 5, pages 5-32, published by the International Seed Testing Association, Switzerland).

The subject of assay [2] is Tomato (Solanum lycopersicum) seeds. The experiment in a line: Germination of drum primed, encrusted tomato seeds. The conditions noted are these: after both 10 and 19 days of incubation. The format is in vivo. The method, then:
as §1
Tomato (Solanum lycopersicum) seeds were primed (i.e. brought to same germination level) using drum priming. Subsequently, the primed tomato seeds were either not treated further or encrusted with composition 6 of Table 1 according to the method as described in Example 1. […] After 10 and 19 days, the germination percentage was determined using the ISTA method described in Example 11.

Turning to `C[C@@H]1C/C=C/C=C/C=C/C=C/[C@H](O[C@@H]2O[C@H](C)[C@@H](O)[C@H](N)[C@@H]2O)C[C@@H]2O[C@](O)(C[C@@H](O)C[C@H]3O[C@@H]3/C=C/C(=O)O1)C[C@H](O)[C@H]2C(=O)O` [natamycin], the “Germination percentage in excess of the untreated seeds” value in assay [1] (after 15 days of incubation) came to 18%; in assay [1] (after 17 days of incubation), 34%; in assay [1] (after 19 days of incubation) it was 38%. The “Germination percentage in excess of the control seeds” value in assay [2] is 10%.
